From patent US10301294B2, “Compounds for the treatment of tuberculosis” (priority 2013, dated 2019)
Read-outs that look alike come from different tables or passages of the source.

Legend:
[1] = tested on: carbon-starved M. tuberculosis H37Rv; assay: microbe, parasite or virus in culture; format: cell-based
[2] = tested on: replicating M. tuberculosis H37Rv; format: cell-based; settings: FIG. 1A; read-out: IC90 against replicating, logarithmically growing bacteria measured by OD600 (converted)
[3] = tested on: carbon-starved M. tuberculosis H37Rv; assay: Non-replicating IC90 determination by luciferase (carbon-starved cells); format: cell-based; settings: FIG. 1C; read-out: IC90 for non-replicating starved cells by luciferase assay
[4] = tested on: replicating M. tuberculosis H37Rv; assay: microbe, parasite or virus in culture; format: cell-based; settings: for Against Replicating Mtb, % @ 125: at 125 uM; for Against Replicating Mtb, % @ 62: at 62 uM
TB = assay: MIC of control anti-tuberculosis antibiotics; format: cell-based, M. tuberculosis; settings: Mycobacterium tuberculosis
[5] = Mycobacterium tuberculosis, H37RV, read-out: Against carbon starving non-replicating Mtb IC90
[6] = Mycobacterium tuberculosis, H37RV, read-out: Against Replicating Mtb IC90

## Clc1ccc(-c2nnc(SCc3cn(-c4ccccc4)nn3)o2)cc1
[1]; FIG. 1D, read-out: IC90 against non-replicating, starved cells by CFU/mL
  IC90: 1 µM
[2]
  IC90: > 62 µM
[3]
  IC90: > 62 µM
[4]; FIG. 1B, read-out: IC90 against replicating, logarithmically growing bacteria measured by CFU/mL (converted)
  IC90: > 62 µM

## NNC(=O)c1ccncc1 [INH, isoniazid]
TB
  MIC: 0.1 µg/mL

## c1ccc(-c2nnc(SCCC3OCCCO3)o2)cc1 [drawing 258]
[1]; [5]
  IC90: 10 µM

## Fc1ccc(CSc2nnc(-c3ccccc3)o2)cc1 [drawing 259]
[1]; [5]
  IC90: 62 µM

## COCCSc1nnc(-c2ccccc2)o1 [drawing 260]
[1]; [5]
  IC90: 4 µM

## c1ccc(-c2nnc(SCc3ccccn3)o2)cc1 [drawing 261]
[1]; [5]
  IC90: 4 µM
[4]; […]
  Against Replicating Mtb, % @ 125: 99% @ 125

## c1ccc(-c2nnc(SC3CCCCC3)o2)cc1 [drawing 262]
[1]; [5]
  IC90: 31 µM

## [O-][n+]1ccccc1CSc1nnc(-c2ccccc2)o1 [drawing 263]
[1]
  Against carbon starving non-replicating Mtb IC90 (uM): None

## [O-][S+](Cc1ccccn1)c1nnc(-c2ccc(Cl)cc2)o1 (stereo not shown) [drawing 264]
[1]; [5]
  IC90: 10 µM

## COCC[S+]([O-])c1nnc(-c2ccc(Cl)cc2)o1 (stereo not shown) [drawing 265]
[1]; [5]
  IC90: 10 µM

## Brc1ccc(-c2nnc(SCc3ccccn3)o2)cc1 [drawing 266]
[1]; [5]
  IC90: < 8 µM

## [O-][S+](Cc1ccccc1)c1nnc(-c2ccccc2)o1 (stereo not shown) [drawing 267]
[1]; [5]
  IC90: 4 µM
[4]; […], at 31 uM
  Against Replicating Mtb, % @ 31: 100% @ 31

## O=S(=O)(Cc1ccccc1)c1nnc(-c2ccccc2)o1 [drawing 268]
[1]; [5]
  IC90: 62 µM

## Fc1ccc(-c2nnc(SCc3ccccn3)o2)cc1 [drawing 269]
[1]
  Against carbon starving non-replicating Mtb, % @ 4: 99% @ 4
[4]; […], at 16 uM
  Against Replicating Mtb, % @ 16: 98.5% @ 16

## Fc1cccc(-c2nnc(SCc3ccccn3)o2)c1 [drawing 270]
[1]; [5]
  IC90: < 8 µM
[4]; [6]
  IC90: 31 µM

## Brc1cccc(-c2nnc(SCc3ccccn3)o2)c1 [drawing 271]
[1]; [5]
  IC90: < 8 µM
[4]; […]
  Against Replicating Mtb, % @ 62: 96% @ 62

## [O-][S+](Cc1cn(Cc2ccccc2)nn1)c1nnc(-c2ccc(Cl)cc2)o1 (stereo not shown) [drawing 272]
[1]; […], at 31 uM
  Against carbon starving non-replicating Mtb, % @ 31: 100% @ 31
[4]; […]
  Against Replicating Mtb, % @ 62: 100% @ 62

## Clc1ccc(-c2nnc(SCc3cn(Cc4ccccc4)nn3)o2)cc1 [drawing 273]
[1]
  Against carbon starving non-replicating Mtb, % @ 4: 99% @ 4
[4]; […]
  Against Replicating Mtb, % @ 125: 98% @ 125

## COc1cccc(-c2nnc(SCc3ccccn3)o2)c1 [drawing 274]
[1]; […], at 16 uM
  Against carbon starving non-replicating Mtb, % @ 16: 99% @ 16
[4]; […]
  Against Replicating Mtb, % @ 62: 99% @ 62

## COc1ccc(CSc2nnc(-c3ccc(Cl)cc3)o2)nc1 [drawing 275]
[1]
  Against carbon starving non-replicating Mtb, % @ 4: 99% @ 4
[4]; […], at 16 uM, 7 d
  Against Replicating Mtb, % @ 16 (7 d): 99.5% @ 16 (7 d)

## COC(=O)CCCOc1ccc(CSc2nnc(-c3ccc(Cl)cc3)o2)nc1 [drawing 276]
[1]
  Against carbon starving non-replicating Mtb, % @ 8: 99% @ 8
[4]; [6]
  IC90: 31 µM

## [N-]=[N+]=NCCOCCNC(=O)CCCOc1ccc(CSc2nnc(-c3ccc(Cl)cc3)o2)nc1 [drawing 277]
[1]
  Against carbon starving non-replicating Mtb, % @ 8: 98% @ 8

## [N-]=[N+]=NCCOCCNC(=O)CCCOc1ccc(C[S+]([O-])c2nnc(-c3ccc(Cl)cc3)o2)nc1 (stereo not shown) [drawing 278]
[1]
  Against carbon starving non-replicating Mtb, % @ 8: 97% @ 8

## CO[C@H]1/C=C/O[C@@]2(C)Oc3c(C)c(O)c4c(O)c(c(/C=N/N5CCN(C)CC5)c(O)c4c3C2=O)NC(=O)/C(C)=C\C=C\[C@H](C)[C@H](O)[C@@H](C)[C@@H](O)[C@@H](C)[C@H](OC(C)=O)[C@@H]1C [rifampin]
TB
  MIC: 0.01 µg/mL
